Laboratory results from patent US9370503B1, “Compounds for treating ocular diseases” (priority 2015, dated 2016).

Legend:
[1] = tested on: Ocular Hypertensive Rabbit; assay: Ocular blood flow in ocular hypertensive rabbit (colored microspheres); assay type: in vivo; settings: 1% topical instillation, 30 minutes after drug instillation
Description: 0.5% alcaine was purchased commercially. A 20% sterilized hypertonic saline solution was prepared in the laboratory. Colored microspheres were purchased from E-Z Trac (Los Angeles, Calif.). The colored microspheres were diluted with saline containing 0.01% (v/v) of Tween 80 to prevent the microspheres from sticking together. Two million microspheres in 0.4 ml were injected at each time point.
Female New Zealand white rabbits weighing 2.-3.0 kg, were purchased commercially. Animal care and treatment were followed by the institutional guidelines.
Rabbits were anesthetized with 35 mg/kg ketamine and 5 mg/kg xylazine by intramuscular injection. Half of the initial dose was given every one hour thereafter. The left ventricle was cannulated through the right carotid artery for injection of colored microspheres and the femoral artery was cannulated for collection of blood samples. The left eye was treated with one drop of proparacaine hydrochloride ophthalmic solution (Bausch & Lomb, Inc., Tampa, Fla., USA). The needle was inserted directly into the anterior chamber of the left eye, which was connected to the 40 mmHg saline manometer. The ocular hypertensive model reduced the ocular blood flow to approximately one third of the normal valued. 50 μl of 10 g/l flavone or vehicle (30% HP-β-CD solution) was instilled topically to the left eye 30 minutes after the ocular hypertensive model was built. The ocular blood flow was measured by colored microspheres at 0, 30, 60 and 120 minutes after treatment with the compounds or vehicle. At each time point, 2 million microspheres were injected as a reference, and blood samples were taken from the femoral artery for exactly one minute following injection of the microspheres. The blood sample was collected in a heparinized tube and the volume was recorded. The rabbits were euthanized with an injection of 100 mg/kg pentobarbital sodium after the last blood sampling. The left eyes were enucleated and dissected into the iris, ciliary body, retina and choroid. All the tissues were weighed.
The details of sample processing and microsphere counting were provided by E-Z Trac (Los Angeles, Calif., USA). In brief, the blood hemolysis reagent was added to the microfuge tubes with the blood sample, then vortexed and centrifuged for 30 minutes at 6000 rpm. The supernatant was removed, and then tissue/blood digest reagents I and II were added. The tubes were capped, vortexed, and centrifuged for 30 minutes. […] The number of microspheres was counted by the hemocytometer under the microscope. […] The protocol thereafter was the same as that used to process the blood samples, and the microspheres were counted.
The blood flow of each tissue at a certain time point was calculated according to the following formula: Qm=(Cm×Qr)/Cr. […]

[2] = tested on: rat's retinal function after ischemic insult; assay: b-wave recovery of retinal function after ischemic insult (ERG); assay type: in vivo; settings: 1% instilled topically
Description: The retinal ischemia experiment has been described previously (Chiou et al., J. Ocular Pharmacol. 9:179-185, 1993, and Chiou et al., J. Ocular Pharmacol. 10:493-498, 1994). Electroretinograms (ERG) were carried out to assess the retinal function prior to and after the ischemic insult. ERGs were recorded using Ag/AgCl electrodes placed in contact with the cornea. One stainless steel needle was inserted subcutaneously between the two eyes as a reference electrode, and another needle was inserted subcutaneously into the neck as a ground electrode. A photostimulator (Grass PS22 Flash) was used to produce flashes of light 5 inches from the eye, and the ERG potentials were recorded on a polygraph. The ERG system was purchased from LKC Technologies, Inc. (Gaithersburg, Md.). A single flash (10 msec) of white light stimuli was used to evoke ERG a- and b-waves. Peak b-wave amplitudes were measured from the trough of the a-wave to the peak of the b-wave.
Long-Evans rats (200-250 g), dark-adapted at least 2 hours, were anaesthetized intramuscularly with ketamine (35 mg/kg) plus xylazine (5 mg/kg). Half of the initial dose was administrated at one hour intervals to maintain adequate anesthesia. The pupils were dilated with 1% tropicamide (50 μl) for ERG experiments. Retinal ischemia was produced by occlusion of the central retina and posterior ciliary arteries using a ligature placed around the optic nerve and posterior ciliary artery. The ligature was drawn tightly through a micropipette tip placed at the base of the eyeball socket to occlude the retinal vessels for 30 min. After 30 min of retinal ischemia, the ligature was liberated and the retinal arteries allowed to reperfuse. ERGs were measured at 30, 60, 90, 120, 180 and 240 min thereafter. The compounds and vehicle were administered topically before occlusion of the central retinal arteries.

- b-wave amplitude recovery, of the original level ([2]; after 30 min retinal ischemia and reperfusion): approximately 50%
- duration of drug action on b-wave recovery ([2]; after drug application): at least 240 min
Compound: CC(C)=CCC/C(C)=C/Cc1c(O)cc2c(c1O)C(=O)C[C@@H](c1ccc(O)c(O)c1)O2 [Formula (I)]
- blood flow in choroid [1]: significantly increased
- blood flow in iris [1]: significantly increased
